Columns and labels:
JCPyV [1] = test: Viral spread assay in NHA cells; type: cell-based, JC polyomavirus; conditions: VP1+ at 5, 10 and 15 days post-infection, vs DMSO
Protocol: (§1) For the viral spread assay, the cells were plated at a density of 5,000 cells per well for SVG-A in complete MEM, or 10,000 cells per well for NHA in complete AM, and incubated overnight at 37°C with 5% CO2. The next day, the cells were infected with purified JCPyV (MOI of 10) for 2 h to establish an infection without the presence of drugs. After infection, JCPyV media were aspirated and plates were incubated with complete media as required for each cell type. One day post-infection, the cells were incubated with the highest nontoxic dose (for SVG-A: 10 µM quercetin, 10 µM myricetin, 10 µM fisetin; for NHA: 5 µM quercetin, 10 µM myricetin, 5 µM fisetin) or a volume-matched DMSO control. Plates were incubated at 37°C with 5% CO2 and infection was measured by indirect immunofluorescence quantification at 3, 6, and 9 days post-infection in SVG-As or 5, 10, and 15 days post-infection for NHAs. At every time point, the cells were either fixed in ice-cold methanol or were supplemented with an additional 50 µL of cell media that consisted of the matched concentration of quercetin, fisetin, myricetin, or DMSO vehicle control. Cell counts were obtained by counting the total number of cells in 10 random fields per well (3 wells total per replicate) on the Ti2-E Inverted Fluorescent Microscope (Nikon).
(§2) To quantify the number of infected cells, SVG-A and NHA cells were fixed with ice-cold 100% methanol at −20°C for at least 15 min to permeabilize cells. The cells were rehydrated with 1× phosphate-buffered saline (PBS) for 15 min and rocked at room temperature. Subsequent permeabilization was conducted with incubation in 1% Triton-X (USB) for 10 min with rocking at room temperature. […] The cells were imaged on a Ti2-E Inverted Fluorescence Microscope (Nikon) using the 20× objective. For each plate, a random subset of 10 fields was chosen to image per well, and three wells were analyzed per condition. Images were analyzed using Elements High Content Imaging software (Nikon) to count total cells versus VP1+ cells.

JCPyV [2] = test: JCPyV infection assay in SVG-A cells (VP1 indirect immunofluorescence); type: cell-based; conditions: JC polyomavirus, 2 h pretreatment, MOI 10, drug maintained 72 h, normalized to DMSO
Protocol: (§3) SVG-A cells were plated at 5,000 cells per well, and NHAs were plated at 10,000 per well. The following day, the cells were treated with the above-described dose curve of either quercetin, fisetin, or myricetin, ranging from 10 to 0.15625 µM. A DMSO (vehicle) control that was volume matched to the highest volume of each flavonol was included. The plates were pretreated with drug for 2 h at 37°C with 5% CO2. Next, the cells were incubated in 1× MEM with purified JCPyV (MOI of 10) in the continued presence of either quercetin, myricetin, fisetin, or a DMSO vehicle control matched to the highest concentration of each flavonol. Plates were incubated for 2 h at 37°C with 5% CO2 and rocked every 15 min to ensure homogenous distribution of virus in each well. Virus-containing media were then aspirated and replaced with either quercetin, myricetin, fisetin, or a volume-matched DMSO control in complete media. SVG-A cells were incubated for 72 h in the incubator at 37°C with 5% CO2. Astrocytes were incubated for 120 h at 37°C with 5% CO2. Plates were fixed in 100% ice-cold methanol and quantified using indirect immunofluorescence staining for the late viral protein VP1.
(§4) To quantify the number of infected cells, SVG-A and NHA cells were fixed with ice-cold 100% methanol at −20°C for at least 15 min to permeabilize cells. The cells were rehydrated with 1× phosphate-buffered saline (PBS) for 15 min and rocked at room temperature. […] The cells were imaged on a Ti2-E Inverted Fluorescence Microscope (Nikon) using the 20× objective. For each plate, a random subset of 10 fields was chosen to image per well, and three wells were analyzed per condition. Images were analyzed using Elements High Content Imaging software (Nikon) to count total cells versus VP1+ cells.
(§5) A linear regression between successive points was used to calculate the half maximal inhibitory values (IC50) from the dose curves of each drug. […] Significance was calculated using Student’s two-tailed t-test in GraphPad Prism. […]

[3] = set-up: method as in PMID 14980703, PMID 28528183; conditions: U251 cells; cited from earlier work
JCPyV [4] = test: Infection time course in NHA cells; type: cell-based, JC polyomavirus; conditions: added at -2, 0, 2 or 24 h relative to infection, VP1+ at 120 h post-infection
Protocol: (§6) SVG-A cells were plated at 5,000 cells per well, and NHAs were plated at 10,000 per well in a Corning 96-well tissue culture-treated plate. The following day, the cells were treated at the following four time points: 2 h before infection (−2 h; pretreatment), 0 h (co-treatment at the time of infection), 2 hs after infection (post treatment), or 24 h after infection (post-treatment). At the 2-h pretreatment time point, quercetin, myricetin, fisetin, or a volume-matched DMSO control was added in complete media. For all other time points, complete media were administered as a mock treatment. The plates were incubated for 2 h at 37°C and 5% CO2. At the 0-h time point, purified JCPyV (MOI of 10) in unsupplemented media was added to each of the time points, either alone or in the presence of drug, as appropriate for each treatment condition. In the −2 h and 0 h treated wells, quercetin, myricetin, fisetin, or a volume-matched DMSO control was added as co-treatment. All plates were infected with purified JCPyV at the same time, for 2 h at 37°C and 5% CO2. At the 2-h time point, the virus was aspirated and flavonols in complete media were added to the −2, 0, and 2 h time points. Complete media without drug or vehicle control was administered to the 24-h time point. Twenty-four hours after infection, flavonols were added to the 24-h time point, in complete media. SVG-A cells were incubated at 37°C and 5% CO2 for 72 h after infection, and NHA cells were incubated at 37°C and 5% CO2 for 120 h after infection. Plates were then stained and infection was quantified via indirect immunofluorescence.
(§7) To quantify the number of infected cells, SVG-A and NHA cells were fixed with ice-cold 100% methanol at −20°C for at least 15 min to permeabilize cells. […] The cells were imaged on a Ti2-E Inverted Fluorescence Microscope (Nikon) using the 20× objective. For each plate, a random subset of 10 fields was chosen to image per well, and three wells were analyzed per condition. Images were analyzed using Elements High Content Imaging software (Nikon) to count total cells versus VP1+ cells.

SVG-A cells = test: Viral ToxGlo toxicity assay in SVG-A cells; type: cell-based, human
Protocol: (§8) SVG-A cells were plated at 5,000 cells per well, and NHAs were plated at 10,000 per well in a Corning 96-well tissue culture-treated plate. The following day, the cells were treated with a twofold dilution series of either quercetin, myricetin, or fisetin, ranging from 20 to 0.15625 µM, in phenol-free media. SVG-A cells were incubated with drug for 72 h in the incubator at 37°C with 5% CO2. NHA cells were incubated with drug for 120 h at 37°C with 5% CO2 to match the exposure times for infection. After incubation, a luciferase-based Viral ToxGlo Assay (Promega) was added to each well according to the manufacturer’s protocol. Viral ToxGlo measures the amount of ATP activity present through a luminescent signal. The cells were incubated with Viral ToxGlo lytic reagent for 10 min at 37°C with 5% CO2. Lysed cell suspension was then transferred to an opaque plate, and luciferase activity was read on the Glomax Multi-detection System (Promega, 0.5 s integration time) and normalized to a vehicle control.

JCPyV [5] = test: Infection time course in SVG-A cells; type: cell-based, JC polyomavirus; conditions: 10 µM, added at -2, 0, 2 or 24 h relative to infection, VP1+ at 72 h post-infection
Protocol: as §6, §7

JCPyV [6] = test: JCPyV infection assay in NHA cells (VP1 indirect immunofluorescence); type: cell-based; conditions: JC polyomavirus, 2 h pretreatment, MOI 10, drug maintained 120 h, normalized to DMSO
Protocol: as §3, §4, §5

JCPyV [7] = test: Viral spread assay in SVG-A cells; type: cell-based, JC polyomavirus; conditions: 10 µM added 24 h post-infection, VP1+ at 3, 6 and 9 days post-infection, vs DMSO
Protocol: as §1, §2

NHA cells = test: Viral ToxGlo toxicity assay in NHA cells; type: cell-based, human
Protocol: as §8

[8] = set-up: method as in PMID 29317180; conditions: amplification of hippocampal long-term potentiation; cited from earlier work
JCPyV [9] = system: JCPyV; set-up: method as in PMID 26600871, PMID 21402853; conditions: relative to cidofovir; cited from earlier work

Compound | inhibition of viral spread in established infection (JCPyV [1]; 5 µM added 24 h post-infection) | IC50 (JCPyV [2]) | crossing of the BBB in in vitro models [3] | inhibition of JCPyV infection by time of addition (JCPyV [4]; 5 µM) | highest nontoxic dose (SVG-A cells; SVG-A cells) | inhibition of JCPyV infection by time of addition (JCPyV [5]) | IC50 (JCPyV [6]) | inhibition of viral spread in established infection (JCPyV [7]) | highest nontoxic dose (NHA cells; NHA cells) | highest nontoxic dose (SVG-A cells; human, 72 h) | highest nontoxic dose (NHA cells; human, 120 h) | crossing of the BBB in vivo [8] | concentration reducing JCPyV DNA copy number, fold smaller than cidofovir (JCPyV [9]) | inhibition of viral spread in established infection (JCPyV [1]; 10 µM added 24 h post-infection) | inhibition of JCPyV infection by time of addition (JCPyV [4]; 10 µM)
O=c1c(O)c(-c2ccc(O)c(O)c2)oc2cc(O)cc(O)c12 [quercetin] | significantly reduce JCPyV infection at all time points | 6.04 µM | up to 65% | maintained their ability to inhibit infection even when administered at 24 h post-infection | 10 µM | inhibited infection at all time points up to and including 24 h post-infection | 2.51 µM | inhibit viral spread in SVG-A cells at 3, 6, and 9 days post-infection | 5 µM |  |  |  |  |  | 
O=c1c(O)c(-c2ccc(O)c(O)c2)oc2cc(O)ccc12 [fisetin] | significantly reduce JCPyV infection at all time points | 5.76 µM |  | maintained their ability to inhibit infection even when administered at 24 h post-infection |  | inhibited infection at all time points up to and including 24 h post-infection | 3.72 µM | inhibit viral spread in SVG-A cells at 3, 6, and 9 days post-infection |  | 10 µM | 5 µM | found to cross the BBB in vivo |  |  | 
CCCCCCCCCCCCCCCCOCCCOP(=O)(O)CO[C@H](CO)Cn1ccc(N)nc1=O [Brincidofovir] |  |  |  |  |  |  |  |  |  |  |  |  | 100 × |  | 
O=c1c(O)c(-c2cc(O)c(O)c(O)c2)oc2cc(O)cc(O)c12 [myricetin] |  | 8.07 µM |  |  | 10 µM | effective only when given 2 h before infection or at the time of infection | 4.47 µM | no significant reduction in viral spread compared to DMSO control | 10 µM |  |  |  |  | without effect | lost by 2 h post-infection

— article PMC12502592, “Therapeutic potential of flavonols in the treatment of JCPyV” (Microbiology Spectrum, 2025)
